Laboratory results published in patent publication US10697960B2, “CXCR4 and ROBO1 expression as markers for autoimmune diabetes” (BOARD OF SUPERVISORS OR LOUISANA STATE UNIVERSITY AND …, priority 2012, dated 2020).
Entries after “also recorded” stand apart in the source; their conditions may differ.

Experiments:
[1] = test system: NOD/ShiLtJ T cells on TNFα-activated MS1 islet endothelial cells; assay: Parallel plate flow chamber T cell adhesion assay with SDF-1 peptide mimetic; type: cell-based, mouse; details: MS1 cells treated 4 hours with 10 ng/ml TNFα; 150 mPa
Description: Hydrodynamic flow chamber assays were performed as otherwise described in C. Sharp et al. (2008). Briefly, T cells isolated as described above were labeled with CellTracker Green (C7025; Life Technologies, Carlsbad, Calif., USA), rinsed, and resuspended at a concentration of 2×10^6 cells/ml in phenol red-free Hanks' balanced salt solution (HBSS). The cells were placed in a beaker that had been previously coated with Sigmacote (Sigma-Aldrich), kept at 37° C., and stirred at 60 rev/min. A flow chamber insert and gasket with a 0.5 cm flow width and 250 μm thickness (GlycoTech, Gaithersburg, Md., USA) were used with 35 mm cell culture dishes containing confluent MS1 cell cultures to form a parallel plate flow chamber. To activate endothelial cells, MS1 cells were treated for 4 to 6 hours at 37° C. with 10 ng/ml recombinant mouse TNFα (T7539; Sigma).
For the SDF-1 peptide mimetic T cell adhesion assay, MS1 cells were rinsed with HBSS and treated for 10 minutes with an SDF-1 peptide mimetic (AYWKENKEQ with two branched lysines as a linker between the two motifs, SEQ ID NO 1) at […]. This peptide was a linearized version of a cyclized SDF-1 analogue reported by Tudan et al., “C-terminal cyclization of an SDF-1 small peptide analogue dramatically increases receptor affinity and activation of CXCR4 receptor,” J. Med. Chem., vol. 45, pp. 2024-31 (2002). T cells were pumped through polypropylene tubing by a syringe pump (KD Scientific, Holliston, Mass., USA) across the endothelial monolayer at a physiological shear stress of 150 mPa. Real-time digital video images (minimum 28 frames/second) were captured with an epifluorescence microscope (TE-2000 Eclipse; Nikon, Tokyo, Japan) and digital camera (Model C4742-95-12ER: Hamamatsu Photonics, Hamamatsu, Japan). Simple PCI software (Hamamatsu Photonics) was used to analyze the video and to measure T cell rolling velocities. Cells were considered firmly adherent if they remained stationary for 10 seconds within the field of view. A minimum of three videos per plate and four plates per condition were used for analysis.
We examined whether a linear SDF-1 peptide mimetic containing the receptor-binding site could replicate the effect of full length SDF-1 in blocking adhesion of T cells to activated endothelium. MS1 cells were treated for 4 hours with 10 ng/ml TNFα, followed by treatment for 10 minutes with an SDF-1 peptide mimetic at 200, 1000, or 5000 ng/ml. Cells were then tested in a parallel plate flow chamber cell adhesion assay. Fluorescently labeled T cells obtained from NOD/ShiLtJ mice flowed over the endothelial monolayers at 150 mPa. […] Leucocyte adhesion videos were analyzed to calculate T cell rolling velocity and to determine whether the decrease in firm adhesion was due to a decreased number of rolling cells.

[2] = test system: NOD/ShiLtJ T cells on MS1 endothelial cells; assay: Anti-ROBO1 T cell detachment assay on MS1 endothelial monolayers under step-wise shear stress; type: cell-based, mouse; details: TNFα stimulation of MS1 cells versus unstimulated control
Description: T cell detachment assays were performed as otherwise described in C. Sharp et al. (2008). T cells were injected into the tubing via an inlet port upstream of the flow chamber at a concentration of 2×10^6 cells/ml and allowed to firmly adhere under static conditions for 15 minutes. Next, shear stress was initiated and increased in a step-wise manner every 30 seconds as follows: 35, 56, 91, 224, 504, and 980 mPa. The assay was recorded by video, which was analyzed to determine the percentage of cells detached at the end of each shear stress interval. For the anti-ROBO1 detachment assay, MS1 cells were treated for […] at 37° C. with TNFα as described above and then with 100 ng/ml recombinant mouse SDF-1α (460-SD; R&D Systems). T cells were pre-treated for 30 minutes at 37° C. with 20 μg/ml ROBO1 blocking antibody (GT15144; Neuromics, Edina, Minn., USA) or isotype control (GT15900; Neuromics).
Having established that T cell levels of ROBO1 differ between C57BL/6J and NOD/ShiLtJ mice, we investigated whether SDF-1-mediated firm adhesion defects were dependent on ROBO1-SLIT2 binding. We used a parallel plate flow chamber detachment assay. NOD/ShiLtJ T cells were first allowed to statically adhere to islet endothelial cell monolayers. […]

## TNFα
[1]
  TNFα-induced adhesion versus untreated endothelium: five times greater
[2]
  T cell attachment / resistance to shear-mediated detachment: increased attachment; also recorded: increased the resistance of T cells to shear-mediated detachment
